# Literature values, collected in patent US8907090B2, “Processes for preparing different forms of (S)-(+)-Clopidogrel bisulfate” (Cadila Healthcare Limited, priority 2003, dated 2014).
# Columns and labels:
# [1] = tested on: platelet aggregation; settings: comparison of enantiomers
# [2] = comparison of enantiomers
SMILES,antiaggregant platelet activity [1],tolerance [2]
"COC(=O)[C@H](c1ccccc1Cl)N1CCc2sccc2C1 (single isomer, unassigned) [dextrorotatory enantiomer]",excellent antiaggregant platelet activity,–
"COC(=O)C(c1ccccc1Cl)N1CCc2sccc2C1 (single isomer, unassigned) [levorotatory enantiomer]",less active,less tolerated
